Positions of bridges follow the written chain, without caps; N, C: chain ends. Residues, ends and D or L forms follow the SMILES beside them. *: point of attachment. Biotin = O=C1N[C@H]2[C@H](CS[C@H]2CCCCC(=O)*)N1
How the values were obtained:
[1] = biological target: T1, bovine liver CAT (Bos taurus, UniProt P00432); assay: SPR kinetic analysis, bovine liver CAT immobilized on CM5 chip; format: binding
T1 construct: bovine liver CAT (C-40; Sigma); purchased Sigma C-40; host or cells: bovine liver (tissue-derived enzyme)
T1 sequence (P00432 2-527 limits assumed): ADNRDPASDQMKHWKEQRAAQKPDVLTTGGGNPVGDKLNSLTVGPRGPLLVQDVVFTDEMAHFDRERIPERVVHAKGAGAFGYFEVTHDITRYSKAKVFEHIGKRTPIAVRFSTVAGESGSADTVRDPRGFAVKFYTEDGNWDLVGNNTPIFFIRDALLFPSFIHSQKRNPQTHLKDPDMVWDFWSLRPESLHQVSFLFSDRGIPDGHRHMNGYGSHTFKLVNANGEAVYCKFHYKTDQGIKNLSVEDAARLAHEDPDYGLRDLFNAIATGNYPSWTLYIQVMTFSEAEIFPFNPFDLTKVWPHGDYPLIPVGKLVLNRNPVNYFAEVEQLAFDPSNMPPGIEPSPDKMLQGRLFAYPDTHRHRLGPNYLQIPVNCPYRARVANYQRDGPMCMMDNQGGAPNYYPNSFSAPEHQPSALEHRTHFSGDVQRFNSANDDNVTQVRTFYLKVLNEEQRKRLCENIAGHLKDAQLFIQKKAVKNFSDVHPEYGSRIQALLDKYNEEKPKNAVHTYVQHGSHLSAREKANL
Protocol: SPR experiments were performed at 20 °C on Biacore T100 instrument operated using Biacore T100 control software (version 2.0.2, GE Healthcare Lifesciences) using Series S CM5 or NTA sensor chips as described in[21]. Kinetic analyses were performed at the flow of 100 μL min^−1 with pAtPNP-A (at 3.78 μM and consecutive twofold dilutions; 11 injections included) employed as a ligand and bovine liver CAT (C-40; Sigma) used as an analyte and immobilized on the active surface of the Series S CM5 sensor chip with amine coupling kit, while the surface regeneration was done with solution of glycine, pH 2.0, and the final sensorgram was generated with Scrubber (BioLogic Software Pty Ltd).

[2] = system: leaf discs of WT plants; assay: Oxidative burst (ROS) in leaf discs; design: species or system Arabidopsis thaliana; settings: leaf discs pre-treated with 100 nM rAtPNP-A for 30 min, then 1 μM flg22, luminol luminescence, 1 h, n = 11–12, P < 0.01
Protocol: Leaf discs (0.196 cm[2]) of 4-week-old WT plants were incubated overnight floating on 0.1 mL water in 96-well titer plate, with one disc per well. The following day the leaf discs were pre-treated with 100 nM rAtPNP-A or mock for 30 min. For ROS detection horseradish peroxidase and luminol (Sigma-Aldrich) were added to a final concentration of 10 μg mL^−1 and 100 μM, respectively. Luminescence was measured directly after addition of either 1 μM of flg22 or 100 nM rAtPNP-A in a MicroLumat LB96P plate reader (Berthold Technologies) for 1 h and is shown in relative light units.
Supplementary Figure S2. AtPNP-A participates in plant immunity.
Kinetics of ROS production after treatment of leaf discs with 1 μM flg22 with or without pre-treatment with 100 nM recombinant AtPNP-A (rAtPNP-A), or after treatment with rAtPNP-A only. Data are shown as mean ± SEM (two-way repeated measure ANOVA followed by Tukey’s multiple comparison test, n = 11 – 12, * P < 0.01). Total production of ROS during 60 min after treatment with rAtPNP-A, flg22, or flg22 and rAtPNP-A pre-treatment is shown as median ± SD (one-way ANOVA and Tukey-Kramer multiple comparison test, n = 11 – 12, P < 0.01) with statistically significant differences indicated by different letters.
(1 picture or pasted object on this page, not shown here)

[3] = system: CAT2; assay: Bimolecular fluorescence complementation (BiFC); format: cell-based, Arabidopsis thaliana; settings: chloroplasts of tobacco leaf protoplasts; NeYFP/CeYFP fusions; mean ± SEM, n = 30, P < 0.0001
Description: The full-length A. thaliana AtPNP-A (At2g18660) coding region entry plasmid pENTRYAtPNP-A[46] and pCR8/GW-TOPOCAT2 were recombined separately with both pSITE-nEYFP-C1 [GenBank Accession Number GU734651] and pSITE-cEYFP-C1 [GenBank Accession Number GU734652] to create pNeYFP-AtPNP-A, pCeYFP-AtPNP-A, pNeYFP-CAT2 and pCeYFP-CAT2, respectively. Each plasmid has either the N-terminal (NeYFP) or C-terminal (CeYFP) fragment of eYFP followed by either AtPNP-A or CAT2 coding region driven by the 35S plant expression promoter. After sequence was confirmed each plasmid was transformed separately into Agrobacterium tumefaciens strain GV3101 (pMP90). Tobacco leaves were infiltrated as previously described in[50]. Briefly, A. tumefaciens strains grown in 2YT medium were harvested by centrifugation and resuspended in infiltration medium (10 mM MES pH 5.6, 10 mM MgCl2, 150 µM acetosyringone) to a final OD600 of 0.2. Equal volumes of infiltration media containing relevant BiFC strains were mixed and infiltrated into the underside of tobacco leaves using a needleless syringe. Leaves were harvested after 3 days to isolate protoplasts following[51] and then immediately imaged.
BiFC images were captured at the La Trobe University LIMS BioImaging Facility using a LSM 510 confocal laser scanning microscope (Zeiss), with a × 40/1.2 water immersion objective. The natural red autofluorescence of chlorophyll was used as a marker for chloroplasts. Excitation/emission wavelengths were 488/505–530 nm for YFP and 561/650 nm long pass for red fluorescence. At least three images containing one or more protoplasts were taken for each of the plasmid construct combinations. Each image captured three separate filter scans, including YFP, red fluorescence and bright field. Post-processing of images was performed with ImageJ version 1.48 software (https://imagej.nih.gov/ij/). For each image the contrast for each panel was set at automatic contrast. A merged image was generated for reference with a 10 µm scale bar. The red fluorescence only panel was used to encircle ten chloroplasts as region of interest (ROI), then the YFP fluorescence (BiFC) calculated for each ROI was divided by the red fluorescence calculated for the same ROI. All BiFC/red fluorescence points were plotted using GraphPadPrism7 (GraphPadSoftware). Mean and standard error were calculated for each BiFC combination. All statistical analyses were performed using GraphPadPrism7.
Figure 4 AtPNP-A interacts with CAT2 in vivo. […] Exemplar merged images of protoplasts isolated from a leaf infiltrated with different combinations of N- or C-terminally tagged CAT2 and AtPNP-A are shown. (g) BiFC/Red fluorescence chloroplast analysis with mean ± SEM in pink.

Chi2, average squared residual ([1]; SPR kinetic fit, 20 °C) | U-value, uniqueness value for kinetic rate constants ([1]; SPR kinetic fit, 20 °C) | Specificity of binding to bovine CAT ([1]; SPR, both ligand-analyte configurations, amine coupling) | Molecule | Effect on flg22-induced oxidative burst [2] | Effect on flg22-induced oxidative burst ([2]; listed as AtPNP) | Effect on flg22-induced oxidative burst ([2]; listed as PNP) | BiFC / Red fluorescence signal, interaction with CAT2 [3]
10.4 RU2 | 2 | points to a specific interaction | CC(C)C[C@@H]1NC(=O)[C@H](CC(N)=O)NC(=O)[C@H](CC(N)=O)NC(=O)[C@H](CCCCN)NC(=O)[C@H](C(C)C)NC(=O)CNC(=O)[C@H](C(C)C)NC(=O)[C@H](C(C)C)NC(=O)[C@H](CC(C)C)NC(=O)[C@H]([C@@H](C)O)NC(=O)[C@H](CCC(=O)O)NC(=O)[C@H](CCCNC(=N)N)NC(=O)[C@H](CCC(N)=O)NC(=O)[C@H]([C@@H](C)O)NC(=O)CNC(=O)[C@H](Cc2ccc(O)cc2)NC(=O)[C@@H](NC(=O)[C@H](C)NC(=O)[C@H](CO)NC(=O)[C@H](CCCNC(=N)N)NC(=O)[C@@H](NC(=O)[C@H](Cc2ccc(O)cc2)NC(=O)[C@@H]2CCCN2)[C@@H](C)O)CSSC[C@@H](C(=O)NCC(=O)N[C@@H](CCCNC(=N)N)C(=O)N[C@@H](CCCNC(=N)N)C(=O)N[C@@H](Cc2ccc(O)cc2)C(=O)N[C@@H](CCCNC(=N)N)C(=O)N[C@H](C(=O)N[C@@H](CCCNC(=N)N)C(=O)N[C@@H](CCCCNC(=O)CCCC[C@@H]2SC[C@@H]3NC(=O)N[C@@H]32)C(=O)O)C(C)C)NC(=O)[C@H](C)NC(=O)[C@H](CCCNC(=N)N)NC(=O)CNC(=O)[C@H](CC(N)=O)NC(=O)[C@H](CCC(N)=O)NC(=O)[C@H](Cc2c[nH]c3ccccc23)NC1=O [pAtPNP-A] (H-PYTRSACYGTQRETLVVGVKNNLWQNGRACGRRYRVRK(Biotin)-OH; disulfide 7-30; N-terminus and C-terminus assumed) | – | – | – | –
– | – | – | AtPNP-A: An A. thaliana PNP, termed AtPNP-A (At2g18660; Q9ZV52) | enhanced flg22-induced oxidative burst | enhances responses to flg22 | enhances oxidative burst | interaction of the proteins in chloroplasts of protoplasts

From publication PMC7665192, “A natriuretic peptide from Arabidopsis thaliana (AtPNP-A) can modulate catalase 2 activity” (Scientific Reports, 2020)
